# Molecular target: T1, recombinant autotaxin (Homo sapiens, UniProt Q13822)
# T1 construct: made in house; host or cells: Hi5 insect cells (baculovirus)
# Test: Autotaxin test (enzyme test), Amplex Red fluorescence with LPC substrate
# Type: biochemical
# Conditions: autotaxin inhibition (enzyme test); for remaining activity at 10 µM: 10 μM compound, read-out: % Control at 10 μM
# Description: Autotaxin Inhibition (Enzyme Test)
# Autotaxin Test (Enzyme Test)
# The autotaxin activity is measured indirectly using Amplex Red reagent. Amplex Red is measured here as fluorogenic indicator for the H2O2 formed. In detail, autotaxin converts the substrate lysophosphatidylcholine (LPC) into phosphocholine and lysophosphatidylic acid (LPA). After this reaction, the phosphocholine is reacted with alkaline phosphatase to give inorganic phosphate and choline. In the next step, choline is oxidised by choline oxidase to give betaine, with formation of H2O2. H2O2 reacts with Amplex Red reagent in the presence of peroxidase (horseradish peroxidase) in a 1:1 stoichiometry and forms the highly fluorescent resorufin. The fluorescence is measured in a reaction-dependent kinetic mode in order that fluorescent signals from possible other fluorescent substances which are not involved in the reaction can be corrected out.
# 3 μl of a standard solution or of the test substances (substances with the name A(n)) in individual concentrations dissolved in 20 mM Hepes pH 7.2 with a maximum of 11% of DMSO are pre-incubated together with 20 μl (19 ng) of highly purified recombinant autotaxin in test buffer in a black microtitre plate provided with 384 wells at 22° C. for 30 min. The reaction is then initiated by addition of 10 μl of L-α-lysophosphatidylcholine (LPC), where the final concentration of LPC is 75 μM. The mixture is incubated at 37° C. for 90 min. After the incubation, Amplex Red reagent, peroxidase (horseradish peroxidase) and choline oxidase is added, and the fluorescence is immediately measured at 612 nm with excitation of 485 nm in a “Tecan Ultra multimode” reader. The activity of autotaxin is calculated indirectly via detection of the H2O2 formed.
# • Microtitre plate: PS microplate, 384 wells, small volume, black Corning, Cat#3677 • Protein: recombinant autotaxin (Baculovirale Hi5 Expression) • Substrate: L-α-lysophosphatidylcholine (chicken egg)); Avanti Polar Lipids #830071 P • Standard: C14 LPA, Avanti Polar Lipids, Cat#857120P • Detection reagent: Amplex Red reagent; Invitrogen #A12222; 5 mg dissolved in 1.923 ml of DMSO peroxidase type VI-A (horseradish) from Sigma #P6782; 5 mg dissolved in 7.45 ml of test buffer, choline oxidase; Sigma # C5896; 50 U dissolved in 2.47 ml of test buffer • Detection reagent mix: 1:50 dilution of detection reagent in test buffer • Test buffer: 10 mM Tris HCl, Merck, Cat #1.08219, pH 8, 1 mM; CaCl2×2 H2O, Merck #1.02382
remaining activity at 10 µM [%],IC50 [nM],Compound
47,> 1000,COc1ccc(-c2ccc3c(c2)C(=O)N2CCN(C(=O)CC(C)(C)C)C[C@@H]2C(=O)N3)cc1 [Compound B25]
74,,O=C1Nc2ccc(-c3ccc4c(c3)OCO4)cc2C(=O)N2CCN(C(=O)[C@@H]3CSCN3)C[C@H]12 [Compound B9]
69,,"COc1ccc(-c2ccc3c(c2)C(=O)N2CCN(C(=O)c4cccc(F)c4)C[C@@H]2C(=O)N3)cc1 [Compound A11, (R)-2-(3-Fluorobenzoyl)-7-(4-methoxyphenyl)-1,3,4,11a-tetrahydro-2H,10H-2,4a,10-triaza-dibenzo[a,d]cycloheptene-5,11-dione]"
21,> 1000,O=C([C@@H]1CCCN1C1CCNCC1)N1CCN2C(=O)c3cc(-c4ccc(Cl)cc4F)ccc3N(CCN3CCOCC3)C(=O)[C@H]2C1 [Compound A153]
-18,100 to 1000,"CC1(C)SCN[C@@H]1C(=O)N1CCN2C(=O)c3cc(-c4ccc(Cl)cc4F)ccc3NC(=O)C2C1 (stereo partly drawn) [Compound A68, 7-(4-Chloro-2-fluorophenyl)-2-((R)-5,5-dimethyl-thiazolidine-4-carbonyl)-1,3,4,11a-tetrahydro-2H,10H-2,4a,10-triazadibenzo[a,d]cycloheptene-5,11-dione]"
-20,100 to 1000,CC(C)(C)CC(=O)N1CCN2C(=O)c3cc(-c4ccc(Cl)cc4)ccc3N(CCO)C(=O)C2C1 (centres unmarked) [Compound A165]
90,> 1000,"Cn1cc(CCC(=O)N2CCN3C(=O)c4cc(-c5ccc(Cl)cc5F)ccc4NC(=O)[C@@H]3C2)cn1 [Compound A98, (S)-7-(4-Chloro-2-fIuorophenyl)-2-[3-(1-methyl-1H-pyrazol-4-yl)propionyl]-1,3,4,11a-tetrahydro-2H,10H-2,4a,10-triazadibenzo[a,d]cycloheptene-5,11-dione]"
74,> 1000,"CC(C)(C)CC(=O)N1CCN2C(=O)c3cc(-c4cccc(C(F)(F)F)c4)ccc3NC(=O)C2C1 (centres unmarked) [Compound A87, 2-(3,3-Dimethylbutyryl)-7-(3-trifluoromethylphenyl)-1,3,4,11a-tetrahydro-2H,10H-2,4a,10-triaza-dibenzo[a,d]cycloheptene-5,11-dione]"
45,> 1000,"NCCN1CCC[C@H]1C(=O)N1CCN2C(=O)c3cc(-c4ccc(Cl)cc4F)ccc3NC(=O)[C@H]2C1 [Compound A119, (R)-2-[(S)-1-(2-Aminoethyl)pyrrolidine-2-carbonyl]-7-(4-chloro-2-fluorophenyl)-1,3,4,11a-tetrahydro-2H,10H-2,4a,10-triazadibenzo[a,d]cycloheptene-5,11-dione]"
69,,"N[C@@H](CO)C(=O)N1CCN2C(=O)c3cc(-c4ccc(Cl)cc4F)ccc3NC(=O)[C@H]2C1 [Compound A122, (R)-2-((S)-2-Amino-3-hydroxypropionyl)-7-(4-chloro-2-fluorophenyl)-1,3,4,11a-tetrahydro-2H,10H-2,4a,10-triazadibenzo[a,d]cycloheptene-5,11-dione]"
90,,"Cn1cc(-c2ccc3c(c2)C(=O)N2CCN(C(=O)CC(C)(C)C)CC2C(=O)N3)cn1 (centres unmarked) [Compound A108, 2-(3,3-Dimethylbutyryl)-7-(1-methyl-1H-pyrazol-4-yl)-1,3,4,11a-tetrahydro-2H,10H-2,4a,10-triaza-dibenzo[a,d]cycloheptene-5,11-dione]"
26,> 1000,O=C1Nc2ccc(-c3ccc(Cl)cc3)cc2C(=O)N2CCN(C(=O)Oc3ccccc3)CC12 (centres unmarked) [Compound A167]
10,> 1000,CC(C)(C)CC(=O)N1CCN2C(=O)c3cc(-c4ccc(Cl)cc4F)ccc3N(CCN3CCOCC3)C(=O)[C@H]2C1 [Compound A148]
9.5,100 to 1000,"CC(C)(C)[C@H](N)C(=O)N1CCN2C(=O)c3cc(-c4ccc(Cl)cc4F)ccc3NC(=O)[C@@H]2C1 [Compound A66, (S)-2-((S)-2-Amino-3,3-dimethylbutyryl)-7-(4-chloro-2-fluorophenyl)-1,3,4,11a-tetrahydro-2H,10H-2,4a,10-triazadibenzo[a,d]cycloheptene-5,11-dione]"
-37,100 to 1000,"O=C1Nc2ccc(-c3ccc(Cl)cc3)cc2C(=O)N2CCN(C(=O)C3(c4ccccc4)CCCC3)CC12 (centres unmarked) [Compound A106, 7-(4-Chlorophenyl)-2-(1-phenylcyclopentane-carbonyl)-1,3,4,11a-tetrahydro-2H,10H-2,4a,10-triazadibenzo[a,d]cycloheptene-5,11-dione]"
-27,100 to 1000,"CC(C)(C)[C@H](O)C(=O)N1CCN2C(=O)c3cc(-c4ccc(Cl)cc4F)ccc3NC(=O)C2C1 (stereo partly drawn) [Compound A60, 7-(4-Chloro-2-fluorophenyl)-2-((S)-2-hydroxy-3,3-dimethylbutyryl)-1,3,4,11a-tetrahydro-2H,10H-2,4a,10-triazadibenzo[a,d]cycloheptene-5,11-dione]"
,100 to 1000,CC(C)(C)CC(=O)N1CCN2C(=O)c3cc(-c4ccc(Cl)cc4)ccc3NC(=O)C2C1 (centres unmarked) [Compound B26]
11,> 1000,"O=C1Nc2ccc(-c3ccc(Cl)cc3)cc2C(=O)N2CCN(C(=O)CC3CCCC3)CC12 (centres unmarked) [Compound A25, 7-(4-Chlorophenyl)-2-(2-cyclopentylacetyl)-1,3,4,11a-tetrahydro-2H,10H-2,4a,10-triaza-dibenzo[a,d]cycloheptene-5,11-dione]"
-9,> 1000,"CC(C)[C@H](N)C(=O)N1CCN2C(=O)c3cc(-c4ccc(Cl)cc4F)ccc3NC(=O)C2C1 (stereo partly drawn) [Compound A59, 2-((S)-2-Amino-3-methylbutyryl)-7-(4-chloro-2-fluorophenyl)-1,3,4,11a-tetrahydro-2H,10H-2,4a,10-triazadibenzo[a,d]cycloheptene-5,11-dione]"
2,100 to 1000,CC(C)(C)CC(=O)N1CCN2C(=O)c3cc(-c4ccc(Cl)cc4F)ccc3N(CCC3CCNCC3)C(=O)[C@H]2C1 [Compound A157]
67,,"O=C1Nc2ccc(-c3cccs3)cc2C(=O)N2CCN(C(=O)CO)C[C@H]12 [Compound A8, (R)-2-(2-Hydroxyacetyl)-7-thiophen-2-yl-1,3,4,11a-tetrahydro-2H,10H-2,4a,10-triazadibenzo[a,d]-cycloheptene-5,11-dione]"
63,,"O=C1Nc2ccc(-c3ccc(Cl)cc3)cc2C(=O)N2CCN(C(=O)C(F)(F)F)CC12 (centres unmarked) [Compound A136, 7-(4-Chlorophenyl)-2-(2,2,2-trifluoroacetyl)-1,3,4,11a-tetrahydro-2H,10H-2,4a,10-triazadibenzo-[a,d]cycloheptene-5,11-dione]"
13,> 1000,"CC(C)(C)CC(=O)N1CCN2C(=O)c3cc(-c4cc(Cl)ccc4F)ccc3NC(=O)C2C1 (centres unmarked) [Compound A85, 7-(5-Chloro-2-fluorophenyl)-2-(3,3-dimethylbutyryl)-1,3,4,11a-tetrahydro-2H,10H-2,4a,10-triaza-dibenzo[a,d]cycloheptene-5,11-dione]"
-6,> 1000,"CC(C)(C)CC(=O)N1CCN2C(=O)c3cc(-c4cccc(F)c4F)ccc3NC(=O)C2C1 (centres unmarked) [Compound A88, 7-(2,3-Difluorophenyl)-2-(3,3-dimethylbutyryl)-1,3,4,11a-tetrahydro-2H,10H-2,4a,10-triaza-dibenzo[a,d]cycloheptene-5,11-dione]"
24,> 1000,"Cc1ccc(-c2ccc3c(c2)C(=O)N2CCN(C(=O)CC(C)(C)C)CC2C(=O)N3)cc1C (centres unmarked) [Compound A90, 2-(3,3-Dimethylbutyryl)-7-(3,4-dimethylphenyl)-1,3,4,11a-tetrahydro-2H,10H-2,4a,10-triaza-dibenzo[a,d]cycloheptene-5,11-dione]"
10,100 to 1000,NC(=O)CN1C(=O)[C@H]2CN(C(=O)[C@@H]3CCCN3C3CCNCC3)CCN2C(=O)c2cc(-c3ccc(Cl)cc3F)ccc21 [Compound A155]
34,> 1000,"O=C1Nc2ccc(-c3ccccc3F)cc2C(=O)N2CCN(C(=O)[C@@H]3CSCN3)C[C@H]12 [Compound A10, (R)-7-(2-Fluorophenyl)-2-((R)-thiazolidine-4-carbonyl)-1,3,4,11a-tetrahydro-2H,10H-2,4a,10-triazadibenzo[a,d]cycloheptene-5,11-dione]"
